Source: US8609862B2, “Use of an adrenal hormone-modifying agent” (Novartis AG, priority 2010, dated 2013)

How the values were obtained:
CYP11B2 = target: T1, CYP11B2 (Rattus norvegicus, UniProt P30099); experiment: In vivo assay: plasma aldosterone concentration (PAC) in ACTH-infused conscious rats; conditions: ACTH infusion; for % Reduction from baseline PAC t = 1 h: 1 h after dosing; for % Reduction from baseline PAC 8 h: 8 h after dosing
T1 construct: from tissue; host or cells: whole animal: conscious male Sprague-Dawley rats under ACTH infusion (the adrenal gland as site of the enzyme comes from the background, b5)
T1 sequence (P30099 35-510): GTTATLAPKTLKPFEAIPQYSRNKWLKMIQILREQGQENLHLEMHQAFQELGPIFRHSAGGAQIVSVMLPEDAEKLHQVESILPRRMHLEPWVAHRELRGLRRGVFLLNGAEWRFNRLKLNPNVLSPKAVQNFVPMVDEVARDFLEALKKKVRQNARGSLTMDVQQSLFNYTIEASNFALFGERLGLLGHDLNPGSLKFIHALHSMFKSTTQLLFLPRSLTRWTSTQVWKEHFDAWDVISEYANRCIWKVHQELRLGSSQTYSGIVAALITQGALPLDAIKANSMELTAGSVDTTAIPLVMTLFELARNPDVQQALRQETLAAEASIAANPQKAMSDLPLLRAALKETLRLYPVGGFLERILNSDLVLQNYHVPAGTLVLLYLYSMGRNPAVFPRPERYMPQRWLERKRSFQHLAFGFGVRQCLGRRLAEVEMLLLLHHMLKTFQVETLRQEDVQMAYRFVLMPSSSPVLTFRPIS
Experimental: The in vivo effects of compounds on plasma aldosterone concentration (PAC) and plasma glucocorticoid (corticosterone) concentration (PCC) were evaluated in conscious rats.
Male Sprague-Dawley rats (˜400-600 g body weight) were surgically instrumented with a femoral arterial and venous catheter. The catheters were exteriorized from the lower back through a stainless steel spring and swivel system that enabled the rats to move freely at all times. Rats were allowed at least one week to recover from the surgery before initiating the experiments.
On the morning of the experiment, a pretreatment blood sample was collected on heparin from the arterial catheter. The blood samples were spun in a refrigerated centrifuge to generate plasma. The plasma was stored frozen at −70° C. until the later measurement of PAC and PCC (by radioimmunoassay). Adrenocorticotropic hormone (ACTH(1-24), referred to herein as ACTH) was then administered as an intravenous (i.v.) bolus (100 ng/kg) followed by a continuous i.v. infusion (30 ng/kg/min) for 9 hours. After one hour of infusion, a baseline (time 0) blood sample was withdrawn from the arterial catheter and processed and stored as described above. The rats were then dosed (typically 0.01 to 100 mg/kg) with the test compound p.o. by oral gavage or parenterally via the arterial catheter (i.a.). Compounds were formulated in an appropriate vehicle (e.g., water (p.o.) or saline (i.a.)) at a physiologically compatible volume (typically 1-2 ml/kg). Additional blood samples were withdrawn at 0.083 (i.a. only), 0.25, 0.5, 1, 2, 3, 4, 5, 6, 7, 8, and 24 hours after dosing with compound and processed and stored as above for later determination of PAC, PCC, and plasma compound concentration (by LC/MS/MS). Oral bioavailability and traditional pharmacokinetic (PK) parameters were estimated from the plasma compound concentrations.
Based on the plasma compound concentration at each dose, the PK/PD (pharmacodynamic) profiles (reduction of PAC and PCC) of each compound were determined.

Human CYP11B2 = target: T2, Human CYP11B2 (Homo sapiens, UniProt P19099); experiment: In vitro human CYP11B2 (aldesterone) assay in NCI-H295R cells; assay type: cell-based; conditions: 1 μM Ang II, 24 hr, aldosterone production by SPA
T2 construct: host or cells: NCI-H295R human adrenocortical carcinoma cells, stimulated with 1 uM Ang II
T2 sequence (P19099 25-503): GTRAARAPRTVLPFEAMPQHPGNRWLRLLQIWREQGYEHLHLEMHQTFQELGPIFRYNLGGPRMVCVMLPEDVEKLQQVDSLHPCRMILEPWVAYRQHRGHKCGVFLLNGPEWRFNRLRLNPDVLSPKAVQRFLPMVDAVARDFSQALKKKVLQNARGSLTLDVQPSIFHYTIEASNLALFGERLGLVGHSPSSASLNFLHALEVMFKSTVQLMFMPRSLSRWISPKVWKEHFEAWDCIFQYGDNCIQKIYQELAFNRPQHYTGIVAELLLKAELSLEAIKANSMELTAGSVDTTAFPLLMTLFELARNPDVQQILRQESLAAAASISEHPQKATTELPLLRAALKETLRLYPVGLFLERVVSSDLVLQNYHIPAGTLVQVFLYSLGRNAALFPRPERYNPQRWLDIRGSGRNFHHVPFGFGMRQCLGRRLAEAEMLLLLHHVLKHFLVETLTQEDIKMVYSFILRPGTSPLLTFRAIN
Description: Human adrenocortical carcinoma NCI-H295R cell line was obtained from American Type Culture Collection (Manassas, Va.). […] Anti-mouse PVT scintillation proximity assay (SPA) beads and NBS 96-well plates were obtained from GE Health Sciences (Piscataway, N.J.) and Corning (Acton, Mass.), respectively. Solid black 96-well flat bottom plates were purchased from Costar (Corning, N.Y.). Aldosterone and angiotensin (Ang II) were purchased from Sigma (St. Louis, Mo.). D-[1,2,6,7-^3H(N)]aldosterone was acquired from PerkinElmer (Boston, Mass.). Nu-serum was a product of BD Biosciences (Franklin Lakes, N.J.).
Measurement of aldosterone activity can also be performed using a 96-well plate format. […] The amount of aldosterone in each sample is calculated by comparing with a standard curve generated using known quantities of the hormone.
Inhibition of the release of certain steroids can be used as a measure of the respective enzyme inhibition by the added test compounds. […] The inhibition plot is calculated by fitting a 4-parameter logistic function to the raw data points using the least squares method. The equation of the 4-parameter logistic function is calculated as follows: Y=(d−a)/((1+(x/c)b))+a, where: a=minimum data level, b=gradient, I […], d=maximum data level, x=inhibitor concentration.

| Compound | % Reduction from baseline PAC t = 1 h (CYP11B2; 30 mg/kg i.a.) [%] | % Reduction from baseline PAC 8 h (CYP11B2; 30 mg/kg i.a.) [%] | IC50 (Human CYP11B2) [nM] | % Reduction from baseline PAC t = 1 h (CYP11B2; 3 mg/kg i.a.) [%] | % Reduction from baseline PAC 8 h (CYP11B2; 3 mg/kg i.a.) [%] | % Reduction from baseline PAC t = 1 h (CYP11B2; 10 mg/kg p.o.) [%] | % Reduction from baseline PAC 8 h (CYP11B2; 10 mg/kg p.o.) [%] |
| --- | --- | --- | --- | --- | --- | --- | --- |
| COc1ccc(CN(C)C(=O)C2(c3ccc(C#N)cc3Cl)CCc3cncn32)cc1 (stereo not drawn) [5-(2-chloro-4-cyanophenyl)-N-(4-methoxybenzyl)-N-methyl-6,7-dihydro-5H-pyrrolo[1,2-c]imidazole-5-carboxamide] | 23 | 59 | 2.7 |  |  |  |  |
| N#Cc1ccc(C2CCCCc3cncn32)c(-c2ccc(F)cc2)c1 (single isomer, unassigned) [4′-fluoro-6-(6,7,8,9-tetrahydro-5H-imidazo[1,5-a]azepin-5-yl)biphenyl-3-carbonitrile] |  |  | 0.4 | 83 | 76 |  |  |
| N#Cc1ccc(C2CCCCc3cncn32)c(Br)c1 (racemic) [3-bromo-4-(6,7,8,9-tetrahydro-5H-imidazo[1,5-a]azepin-5-yl)benzonitrile racemate, 3-bromo-4-(6,7,8,9-tetrahydro-5H-imidazo[1,5-a]azepin-5-yl)benzonitrile] |  |  | 1.2 |  |  | 79 | 89 |
